Assay results as given in US20230372289A1, “ANDROGRAPHOLIDE DERIVATIVE FOR USE IN THE TREATMENT OF INFLAMMATORY DISEASES ASSOCIATED WITH A CYTOKINE STORM” (CONSEJO SUPERIOR DE INVESTIGACIONES CIENTÍFICAS (CSIC), priority 2020, published 2023).
Converted amounts (≈) assume the structure as drawn. “Also recorded” adds a separate entry of the source.

Legend:
[1] = test system: cells involved in the inflammatory response; test: Cellular inflammatory response in transgenic larvae (LYZ:Red) after SVCV infection, treatment by microinjection; assay type: in vivo, Danio rerio; settings: microinjection 2 nl concomitant with SVCV, 2 hpi, vs control groups
Protocol: (§1) Anti-inflammatory activity studies of the compounds were carried out in wild type fish, determining the expression levels of the pro-inflammatory cytokines IL-1β and IL-6. Transgenic larvae with labeled fluorescent neutrophils (Tg(Mpx:GFP)i114) or fluorescent myeloid cells (Tg(LYZ:Red)) were also used to assess how different treatments affect the inflammatory response of these cells. The inflammatory stimulus used was both the virus itself, which causes activation of the inflammasome and death of macrophages by pyroptosis (Varela et al. J. Virol. 2016, 88, 12026), as well as an acute stimulus of inflammation generated by a wound in the tail. The migration of fluorescent leukocytes from these transgenic lines was studied by means of microscopy and image analysis.
In a first assay, the cellular response to inflammation was quantified in transgenic Danio rerio larvae (LYZ:Red) after an infection with SVCV treated or untreated (control) with the AG1 compounds (28 μM), AG3 (10 μM), AG4 (10 μM), AG5 (10μM) and EAp (10 μg/ml). The treatments were carried out by microinjection (2 nl in the duct of Cuvier) of the drugs in fish 3 days post-fertilization (5-10 fish/well), concomitantly administering the virus and the different compounds. […] At 2 h post-injection (2 hpi), the number of cells involved in the inflammatory response was determined.

New Zealand rabbits [2] = test: Repeated dose toxicity, daily intravenous administration for 7 days (phase II); assay type: in vivo; settings: AG-5 in PBS (3 mg/ml), intravenous daily for 7 days
Protocol: (§2) As part of the preclinical evaluation of toxicity, the purpose of this study was to define the MRD of AG-5, formulated as a solution in PBS (3 mg/ml), in a non-rodent mammalian species, that is, rabbit, under GLP and to provide data of toxicological interest.
(§3) To this end, a two-phase study was designed: i) in phase I, the product was administered intravenously in a single dose and following OECD guidelines 425, to a total of 4 New Zealand rabbits (2 males and 2 females) of about 2.5 kg and 12-13 weeks old, and the maximum tolerated dose (MTD) range was provisionally determined; ii) in phase II, the animals (a total of 4 New Zealand rabbits of about 2.5 kg and 12-13 weeks old) were given a daily intravenous administration for 7 days and the MRD that will serve as a reference (highest dose to be used) was confirmed.
(§4) The initial dose to be used in phase I was selected based on the data obtained by the laboratory after the administration of AG-5 in rats at a repeated dose of up to 30 mg/kg, for 7 days. In this study, the dose of 30 mg/kg was established as the MRD to be used in subsequent general toxicity studies. […] The dose to be tested in phase II was determined based on the results obtained in phase I, selecting a dose from the dose interval lower than that at which serious toxic effects would have been observed, with a maximum of 15 mg/kg/day as MFD, in application of the ICH M3(R2) guideline. The study considered the complete assessment of the symptoms, that is, intensity, time of onset and reversibility, the study of analytical (hematological and biochemical) parameters and the determination of the weight of toxicity target organs, to be fundamental.

[3] = Solubility of the product in PBS; assay type: physicochemical; settings: aqueous buffer
[4] = test system: migration of neutrophils to the wound; test: Acute inflammatory response produced by a tail wound, neutrophil migration in Tg(Mpx:GFP)i114 larvae, bath treatment; assay type: in vivo, Danio rerio; settings: 10 μM by bath, tail cut after 24 hours, neutrophils counted 24 hours after the wound
Protocol: as §1
In a second assay, the effect of the different compounds on an acute inflammatory response produced by a wound was analyzed. To that end, transgenic fish with fluorescent neutrophils (Tg(Mpx:GFP)i114) were used and their migration to the affected area was analyzed. The AG1 (5 μM), AG3 (5 μM), AG4 (10 μM), AG5 (10 μM) compounds and EAp (10 μg/ml) were administered by bath and after 24 hours the wound was made by cutting the end area of the tail. After 24 hours, neutrophils that migrated to the area of the wound were counted. […] FIG. 3.

IL-6 = IL-6 gene expression by qPCR in wild type larvae infected with SVCV, bath treatment; assay type: in vivo, Danio rerio; settings: 10 μM bath for 24 h, then SVCV injection, qPCR at 24 h, vs untreated control groups
Protocol: as §1
In a third and final assay, the gene expression of proinflammatory cytokines was determined in Danio rerio (wild type) larvae treated with the AG1 (5 μM), AG3 (5 μM), AG4 (10 μM), AG5 (10 μM) compounds and EAp (10 μg/ml), and subsequently infected with SVCV. The treatments were carried out in a bath for 24 h on fish 1 day post-fertilization (10 fish/well). The experiment was carried out in quadruplicate (n=4). On the second day post-fertilization each fish was injected (2 nl in the duct of Cuvier) 5×10^4 TCID50/mL of SVCV. At 24 h, the expression of IL-6 was determined by qPCR.

[5] = test system: Salmonella typhimurium strains TA98, TA100, TA102, TA1535 and TA1537; test: Ames test; assay type: cell-based
Protocol: The aim of the study was to characterize the possible genotoxic effect of the assay product AG-5 by means of the Ames test (Ames et al. Proc. Nat. Acad. Sci. USA 1973, 70, 783). To that end, it was determined in a study carried out under GLP whether AG-5 has the ability to produce gene mutations, either by substitution or by mismatch, in Salmonella typhimurium bacteria histidine (His-) auxotrophs.
The study was carried out with strains TA98, TA100, TA102, TA1535 and TA1537 in the presence and in the absence of metabolic activation (S9 mixture). The doses recommended by the OECD guidelines were tested: 100 mg/ml, that is, equivalent to 5000 μg/plate, and […] other lower concentrations (33.3; 11.1; 3.7 and 1.2 mg/ml). […] The results were negative in the 5 bacterial strains (TA98, TA100, TA102, TA1535 and TA1537) both in the presence and in the absence of metabolic activation.

Wistar rats [6] = test: Single intravenous dose toxicity (phase I, OECD 425); assay type: in vivo; settings: AG-5 in PBS (3 mg/ml)
Protocol: (§5) As part of the preclinical toxicity evaluation, the purpose of this study was to define the maximum repeated dose (MRD) of AG-5, formulated as a solution in PBS (3 mg/ml), in a mammalian rodent species under good laboratory practice (GLP) and to provide data of toxicological interest. To this end, a two-phase study was designed: i) in phase I, the product was administered intravenously in a single dose and following OECD guidelines 425 (OECD Guidelines for the testing of chemicals. Guidelines 425: Acute oral toxicity: up and down procedure. Adopted 3 Oct. 2008), to a total of 12 8-week old female Wistar rats by means of a dose escalation process (incremental factor 3.2), the maximum tolerated dose (MTD) was provisionally determined; ii) in phase II, the animals (a total of 8-week old Wistar rats, 15 males and 15 females) were given a daily intravenous administration for 7 days and the MRD was confirmed.
The initial dose to be used in phase I was selected from the sequence of doses included in OECD guidelines 425, that is, 5.5, 17.5 and 30 mg/kg of body weight. The doses to be tested in phase II were determined based on the results obtained in phase I, selecting 3 doses from the dose interval lower than that in which serious toxic effects would have been observed, that is, 15, 20 and 30 mg/kg/day, with 30 mg/kg being the maximum feasible dose (MFD), in application of the ICH M3(R2) guideline (ICH Harmonized Tripartite Guideline. Non-Clinical Safety Studies for the Conduct of Human Clinical Trials and Marketing Authorization for Pharmaceuticals M3 (R2). Current Step 5 version dated 11 Jun. 2009). The study considered the complete assessment of the symptoms, that is, intensity, time of onset and reversibility, the study of analytical (hematological and biochemical) parameters and the determination of the weight of toxicity target organs, to be fundamental.

Wistar rats [7] = test: Repeated dose toxicity, daily intravenous administration for 7 days (phase II); assay type: in vivo; settings: AG-5 in PBS (3 mg/ml)
Protocol: as §5
The initial dose to be used in phase I was selected from the sequence of doses included in OECD guidelines 425, that is, 5.5, 17.5 and 30 mg/kg of body weight. […]

New Zealand rabbits [8] = test: Single intravenous dose toxicity (phase I, OECD 425); assay type: in vivo; settings: AG-5 in PBS (3 mg/ml)
Protocol: as §2, §3, §4

C=C1CCC2C(C)(CO)C(O)CCC2(C)C1CC=C1C(=O)OCC1O (stereo not shown) [AG1, 3-[2-[-decahydro-6-hydroxy-5-(hydroxy-methyl)-5,8a-dimethyl-2-methylene-1-naphthalenyl]ethylidene]dihydro-4-hydroxy-2(3H)-furanone, reference compound]
cellular inflammatory response induced by the viral infection (number of cells involved in the inflammatory response) ([1]; 28 μM): significantly reduce

C=C1CC[C@@H]2[C@](C)(CO)[C@H](O)CC[C@@]2(C)[C@@H]1C[C@H](C1=CCOC1=O)S(=O)(=O)O [AG5, 14-deoxy-12(R)-sulfo-andrographolide]
changes in analytical parameters, macroscopic alterations in abdominal and thoracic organs, absolute or relative weight of the organs (New Zealand rabbits [2]; 15 mg/kg, rabbit study): No toxicologically relevant changes
mortality or alterations in the general symptoms (New Zealand rabbits [2]; 15 mg/kg, rabbit study): did not produce mortality or alterations in the general symptoms
MRD (maximum repeated dose) (New Zealand rabbits [2]; rabbits): 15 mg/kg
solubility [3]: 3 mg/mL (≈ 7.24 mM)
inflammatory response generated by the migration of neutrophils to the wound [4]: significantly decreased
IL-6 production (gene expression) in infection by SVCV (IL-6): significantly reduce
precipitation of the product or toxicity (preliminary dose test) ([5]; 100 mg/ml (5000 μg/plate) and lower concentrations (33.3; 11.1; 3.7 and 1.2 mg/ml)): No precipitation of the product or toxicity was observed
mutagenicity test (gene mutations) ([5]; 5 strains, in the presence and in the absence of metabolic activation (S9 mixture), up to 5000 μg/plate): negative; also recorded: did not induce gene mutations
LD50 estimated in rats (Wistar rats [6]): greater than 30 mg/kg of body weight
MTD level in rats in a single dose (Wistar rats [6]): 30 mg/kg of body weight
signs of toxicity related to the administration (Wistar rats [6]; all doses tested in phase I): nor did it produce signs of toxicity
cellular inflammatory response induced by the viral infection (number of cells involved in the inflammatory response) ([1]; 10 μM): significantly reduce
MRD (maximum repeated dose) (Wistar rats [7]; intravenous daily for 7 days): 30 mg/kg
changes in analytical parameters, macroscopic alterations in abdominal and thoracic organs, absolute or relative weight of the organs (Wistar rats [7]; intravenous daily for 7 days, 15, 20 and 30 mg/kg): No toxicologically relevant changes
LD50 estimated in rabbits (New Zealand rabbits [8]; intravenous single dose): greater than 15 mg/kg of body weight
MTD level in rabbits in a single dose (New Zealand rabbits [8]; intravenous single dose): 15 mg/kg of body weight
lethality (New Zealand rabbits [8]; intravenous single dose 15 mg/kg, New Zealand rabbits): did not produce lethality in any animal
associated signs of toxicity (New Zealand rabbits [8]; intravenous single dose 15 mg/kg, rabbits): No associated signs of toxicity were observed
